In patent US20250115600A1, “COVALENT MODIFIERS OF AKT1 AND USES THEREOF” (Terremoto Biosciences, Inc., priority 2022, published 2025):

Key:
AKT1 WT [1] = biological target: T1, AKT1 WT (Homo sapiens (Human), UniProt P31749); assay: Live cell target engagement (NanoBRET) in HEK293 cells; format: cell-based; conditions: HEK293, 2 h at 37 C; Table 7
Target sequence in this assay (P31749 whole entry): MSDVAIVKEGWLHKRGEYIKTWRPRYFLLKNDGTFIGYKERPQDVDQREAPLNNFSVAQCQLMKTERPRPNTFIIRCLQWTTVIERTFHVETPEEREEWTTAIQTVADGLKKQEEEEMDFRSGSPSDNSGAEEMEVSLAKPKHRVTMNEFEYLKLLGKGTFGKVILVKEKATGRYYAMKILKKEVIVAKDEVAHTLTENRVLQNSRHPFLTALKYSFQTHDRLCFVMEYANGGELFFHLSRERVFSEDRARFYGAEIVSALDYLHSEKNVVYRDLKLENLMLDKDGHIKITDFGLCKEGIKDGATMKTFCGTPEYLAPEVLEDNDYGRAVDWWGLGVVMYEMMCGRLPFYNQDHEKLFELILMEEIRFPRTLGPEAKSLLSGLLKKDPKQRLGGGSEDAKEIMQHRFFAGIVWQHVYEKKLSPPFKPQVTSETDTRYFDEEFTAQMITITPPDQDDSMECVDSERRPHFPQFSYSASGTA

AKT2 = AKT2 (Homo sapiens (Human), UniProt P31751); assay: as above; format: cell-based; conditions: HEK293, 2 h at 37 C; Table 7
AKT1 WT [2] = biological target: T1, AKT1 WT; assay: Dissociation rate of Compound A and Compound B by competition with ARQ-092, LCMS; format: binding; conditions: compound 5 μM, 15 minutes, then ARQ-092 50 μM; 25 mM HEPES pH 8.0, 150 mM NaCl
Method: (§1) Determination of compound dissociation rate by intact protein mass spectrometry:Recombinant AKT1 containing appropriate mutations (1 μM) was treated with inhibitor (5 μM) at room temperature. After 15 minutes, ARQ-092 (50 μM final concentration) was added to prevent aldehyde-containing compound rebinding after initial dissociation. At various timepoints, aliquots were removed and quenched with 5 mM NaBH4 to capture the reversible imine through reductive amination, then analyzed by LCMS. Deconvoluted monoisotopic intensities of unmodified vs. compound-modified mass peaks were compared.
(§2) AKT1(E17K or WT) (1 μM) was incubated with Compound A or Compound B (5 μM) for 15 minutes in 25 mM HEPES pH 8.0, 150 mM NaCl buffer. Then ARQ-092 (50 μM) was added and aliquots quenched with 5 mM NaBH4 at a series of timepoints and the percentage labelling determined by LCMS. FIG. 32A and FIG. 32B provide competition data (dissociation rates) for Compound A and Compound B in both wild-type AKT1 and AKT1 E17K against ARQ-092. Table 8 provides half-life data based on the dissociation studies described herein.
Target sequence in this assay (P31749 2-480): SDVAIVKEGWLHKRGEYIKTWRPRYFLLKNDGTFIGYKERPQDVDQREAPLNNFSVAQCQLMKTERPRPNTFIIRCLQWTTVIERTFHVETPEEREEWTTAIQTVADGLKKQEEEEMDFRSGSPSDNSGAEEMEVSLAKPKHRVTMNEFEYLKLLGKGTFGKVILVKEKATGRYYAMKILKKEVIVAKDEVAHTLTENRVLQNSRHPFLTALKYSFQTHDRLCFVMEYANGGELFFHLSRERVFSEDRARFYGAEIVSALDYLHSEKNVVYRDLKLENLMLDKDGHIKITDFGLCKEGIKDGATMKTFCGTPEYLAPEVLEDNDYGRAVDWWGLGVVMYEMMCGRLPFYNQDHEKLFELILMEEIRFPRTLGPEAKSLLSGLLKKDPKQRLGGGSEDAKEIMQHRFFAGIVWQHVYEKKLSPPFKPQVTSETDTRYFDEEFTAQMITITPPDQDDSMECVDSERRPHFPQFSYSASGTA

AKT1 E17K [3] = biological target: T2, AKT1 E17K (Homo sapiens (Human), UniProt P31749, E17K); assay: as above; format: binding; conditions: for AKT1 E17K t1/2: compound 5 μM, 15 minutes, then ARQ-092 50 μM, 25 mM HEPES pH 8.0, 150 mM NaCl; for Off-rate Selectivity E17K/WT: ratio of t1/2
Method: as §1, §2
Target sequence in this assay (P31749 2-480 E17K): as the sequence (P31749 2-480) above, with E16K counted along it

AKT1 E17K [4] = biological target: T2, AKT1 E17K; assay: Live cell target engagement (NanoBRET) in HEK293 cells; format: cell-based; conditions: HEK293, 2 h at 37 C; Table 7
Target sequence in this assay (P31749 whole entry E17K): as the sequence (P31749 whole entry) above, with E17K counted along it

BEAS2B-AKT1(E17K) = BEAS2B-AKT1(E17K) (Homo sapiens (Human), UniProt P31749, E17K); assay: Washout, target engagement durability in intact cells (in-gel fluorescence); format: cell-based
Sequence of BEAS2B-AKT1(E17K) (P31749 whole entry E17K): as the sequence (P31749 whole entry) above, with E17K counted along it
Method: (§3) FIG. 31 illustrates in-gel fluorescence and western blot wash out experiments of BEAS2B-AKT1(WT) and BEAS2B-AKT1(E17K) following incubation of the cells with Compound B for 0.5 hr. Wash out periods were 0 hr, 0.5 hr, 1 hr, 1.5 hr, 3 hrs, and 21 hrs.
(§4) Measurement of target engagement durability in intact cells: Beas-2b cells stably over-expressing either Flag-AKT1 WT or Flag-AKT1 E17K were treated with compound for 30 minutes at 37 C. The media was then aspirated and replaced with fresh media and the cells were incubated at 37° C. At various timepoints, cells were washed with PBS and then lysed in buffer containing 5 mM NaBH4. After 1 h, the lysate was precipitated in MeOH/CHCl3, resuspended in 1% SDS in PBS and then subjected to copper catalyzed click chemistry with TAMRA-biotin-azide. The samples were precipitated again and then resuspended in 1.5× SDS loading buffer, separated by SDS-PAGE and analyzed by in-gel fluorescence and western blot.

BEAS2B-AKT1(WT) = BEAS2B-AKT1(WT) (Homo sapiens (Human), UniProt P31749); assay: as above; format: cell-based; conditions: incubation 0.5 hr; 21 hours of dilution compared to 1 hour
Sequence of BEAS2B-AKT1(WT) (P31749 whole entry): as the sequence (P31749 whole entry) above
Method: as §3, §4

Sequence of AKT2 (P31751 whole entry): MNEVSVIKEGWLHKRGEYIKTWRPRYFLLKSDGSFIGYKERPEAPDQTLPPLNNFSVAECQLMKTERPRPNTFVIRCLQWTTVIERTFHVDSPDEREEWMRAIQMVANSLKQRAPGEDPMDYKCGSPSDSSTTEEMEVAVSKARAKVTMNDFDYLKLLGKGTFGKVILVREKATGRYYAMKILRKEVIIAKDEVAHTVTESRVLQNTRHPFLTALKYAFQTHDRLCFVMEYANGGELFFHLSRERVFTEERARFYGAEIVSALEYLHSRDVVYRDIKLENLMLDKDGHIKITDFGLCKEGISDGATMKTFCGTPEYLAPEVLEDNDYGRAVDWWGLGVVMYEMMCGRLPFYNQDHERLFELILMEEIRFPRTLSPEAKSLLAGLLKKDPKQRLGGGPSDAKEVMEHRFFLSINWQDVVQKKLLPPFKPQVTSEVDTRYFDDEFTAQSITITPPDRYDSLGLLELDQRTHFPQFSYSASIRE

| IC50 (AKT1 WT [1]) [nM] | IC50 (AKT2) [nM] | AKT1 (WT) t1/2 (AKT1 WT [2]) [min] | AKT1 E17K t1/2 (AKT1 E17K [3]) [min] | Off-rate Selectivity E17K/WT (AKT1 E17K [3]) | IC50 (AKT1 E17K [4]) [nM] | extent of binding to WT-AKT1 after washout (BEAS2B-AKT1(WT)) | SMILES | extent of binding to E17K AKT1 after washout (BEAS2B-AKT1(E17K); incubation 0.5 hr, 21 hour of washout compared to 1 hour) | selectivity of binding, E17K AKT1 versus WT-AKT1 (BEAS2B-AKT1(E17K); washout experiment) |
| --- | --- | --- | --- | --- | --- | --- | --- | --- | --- |
| < 100 | > 500 | 5 | 8.2 | 1.6 | 100 to 500 |  | C#Cc1cccc(-c2ccc3nc(-c4cccnc4N)n(-c4ccc(CNC(=O)c5ccc(C=O)c(O)c5)cc4)c3n2)c1 [Compound A, N-(4-(2-(2-aminopyridin-3-yl)-5-(3-ethynylphenyl)-3H-imidazo[4,5-b]pyridin-3-yl)benzyl)-4-formyl-3-hydroxybenzamide] |  |  |
| 100 to 500 | > 500 | 72.7 | 1037 | 14.7 | < 100 | markedly diminished | C#Cc1cccc(-c2ccc3nc(-c4cccnc4N)n(-c4ccc(CNCCc5ccc(C=O)c(O)c5)cc4)c3n2)c1 [Compound B, 4-(2-((4-(2-(2-aminopyridin-3-yl)-5-(3-ethynylphenyl)-3H-imidazo[4,5-b]pyridin-3-yl)benzyl)amino)ethyl)-2-hydroxybenzaldehyde] | roughly equivalent to binding after 1 hour of washout | binds with substantial selectively to K17 in E17K AKT1 |
